The source of these data is PubChem BioAssay (NCI).

Holding throughout (assay): inhibition of tumour cell growth, NCI panel, 48 h
Experiment [1] relates to BT-549 breast.
Experiment [2] has as its system MOLT-4 leukemia.
The test system of experiment [3] is UO-31 renal.
The test system of experiment [4] is COLO 205 colon.
The test system of experiment [5] is T-47D breast.
The test system of experiment [6] is SK-OV-3 ovarian.
For experiment [7], the system named is MCF7 breast.
Experiment [8] concerns CAKI-1 renal.
The subject of experiment [9] is KM12 colon.
Experiment [10] relates to HOP-62 NSCLC.

Structures are written as SMILES.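 Cells were grown in 96-well plates and exposed to each compound for 48 hours at five concentrations; endpoints were interpolated linearly between bracketing concentrations, or set to the highest concentration if not reached. GI50 marks 50% less growth. TGI is the concentration that stops growth completely.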

Turning to `Cc1ccc(NS(=O)(=O)c2ccc(-c3cnc(C4CC4)o3)cc2)cc1`, the GI50 in experiment [1] was 5.14 µM; in [2] it was 3.22 µM; in experiment [3], 3.49 µM; in [4], 3.64 µM; in experiment [5], 2.68 µM; in [6] it was 4.81 µM. The GI50 in experiment [7] was 1.55 µM; in [8], 2.77 µM; in [9] it was 2.53 µM; in experiment [10], 3.13 µM. For the same compound, the TGI in [1] came to 19.7 µM; in experiment [2], 20.9 µM; in experiment [3] it was 16.1 µM; in experiment [4], 16.1 µM; in [5], 11 µM; in experiment [6], 19.6 µM. In addition, the TGI in experiment [7] was found to be 14.9 µM; in [8], 15.4 µM; in [9], 15.9 µM; in [10], 16.7 µM.
As to `Brc1c[n+](Cc2ccc3ccccc3c2)cn1Cc1ccc2ccccc2c1`, the GI50 in experiment [1] was 1.69 µM; in [2], 1.79 µM; in [3] it was 7.09 µM; in experiment [4], 1.31 µM; in experiment [5], 2.14 µM; in experiment [6], 2.56 µM. Further, the GI50 is 1.59 µM in experiment [7], 2.03 µM in [8], 1.67 µM in [9] and 2.16 µM in experiment [10]. Moreover, the TGI in [1] was determined as 3.18 µM; in experiment [2] it was 5.58 µM; in experiment [3], 23.1 µM; in experiment [4], 3.16 µM; in experiment [5] it was 7.2 µM; in [6], 11.4 µM. The TGI in experiment [7] turned out to be 3.39 µM; in [8], 5.17 µM; in experiment [9], 3.28 µM; in experiment [10], 5.96 µM.
As to `O=S(=O)(Nc1ccc(-c2nc(-c3cccc(OCCN4CCOCC4)c3)c(-c3ccnc(Br)c3)[nH]2)cc1)c1ccccc1`, the GI50 in experiment [1] is 3.02 µM; in experiment [2], 2.59 µM; in experiment [3], 2.92 µM; in experiment [4], 3.54 µM; in experiment [5] it was 2.86 µM; in [6], 3.81 µM. Further, the GI50 was 2.16 µM in experiment [7], 2.56 µM in experiment [8], 3.21 µM in [9] and 3.5 µM in [10]. Moreover, the TGI in [1] was over 100 µM; in [2], over 100 µM; in [3] it was over 100 µM; in experiment [4], over 100 µM; in experiment [5] it was 28.6 µM; in [6] it was over 100 µM. The TGI is 8.51 µM in [7], 14.5 µM in experiment [8], over 100 µM in experiment [9] and 57.3 µM in experiment [10].
